The first experiment has as its target human recombinant αvβ6 protein (Homo sapiens, UniProt P06756+P18564). Description: αvβ6 binding assay using fluorescence polarization (FP), competition with a fluorescently labeled RGD peptide. The following applies: 12 concentration points, highest 10 µM, read-out: αvβ6 IC50. The procedure:
αvβ6 binding assay using fluorescence polarization (FP) method The analysis was based on competition with a fluorescently labeled RGD peptide for binding to αvβ6. The binding abilities of the test compounds were evaluated and screened according to FP value changes.
The test compounds (3.5 µL) were added to a 384-well black plate. For each test compound, 12 concentration points were set. The highest concentration was 10 µM, and was serially diluted 3-fold. DMSO control wells were used to determine the maximum signal, and 500 nM compound CWHM-12 [drawing 318]
HY-18644) control wells were used as the minimum signal.Then, 3.5 µL of a 4× human recombinant αvβ6 protein working solution (Acrobiosystem) was added. After 15 min of incubation at room temperature, 7 µL of a 2× fluorescent RGD peptide solution (Sangon Biotech) was added to each well. After 1 h of incubation at room temperature, FP signals were read using Envision. GraphPad Prism was used to fit inhibition curves and calculate IC50 values.
The IC50 values (Z factor > 0.5) were calculated using the following formula: Curve fitting formula: Y = Bottom + (Top - Bottom)/(1 + 10^((LogIC50 - X) × Hill Slope)) X: logarithmic value of inhibitor concentration; Y: inhibition percentage; Bottom: minimum response; Top: maximum response; Hill Slope: curve slope. Table 1. Data on the abilities of the compounds (III-h')-(III-m') of the present disclosure to bind to αvβ6
Chain of human recombinant αvβ6 protein (P06756 31-992 limits assumed): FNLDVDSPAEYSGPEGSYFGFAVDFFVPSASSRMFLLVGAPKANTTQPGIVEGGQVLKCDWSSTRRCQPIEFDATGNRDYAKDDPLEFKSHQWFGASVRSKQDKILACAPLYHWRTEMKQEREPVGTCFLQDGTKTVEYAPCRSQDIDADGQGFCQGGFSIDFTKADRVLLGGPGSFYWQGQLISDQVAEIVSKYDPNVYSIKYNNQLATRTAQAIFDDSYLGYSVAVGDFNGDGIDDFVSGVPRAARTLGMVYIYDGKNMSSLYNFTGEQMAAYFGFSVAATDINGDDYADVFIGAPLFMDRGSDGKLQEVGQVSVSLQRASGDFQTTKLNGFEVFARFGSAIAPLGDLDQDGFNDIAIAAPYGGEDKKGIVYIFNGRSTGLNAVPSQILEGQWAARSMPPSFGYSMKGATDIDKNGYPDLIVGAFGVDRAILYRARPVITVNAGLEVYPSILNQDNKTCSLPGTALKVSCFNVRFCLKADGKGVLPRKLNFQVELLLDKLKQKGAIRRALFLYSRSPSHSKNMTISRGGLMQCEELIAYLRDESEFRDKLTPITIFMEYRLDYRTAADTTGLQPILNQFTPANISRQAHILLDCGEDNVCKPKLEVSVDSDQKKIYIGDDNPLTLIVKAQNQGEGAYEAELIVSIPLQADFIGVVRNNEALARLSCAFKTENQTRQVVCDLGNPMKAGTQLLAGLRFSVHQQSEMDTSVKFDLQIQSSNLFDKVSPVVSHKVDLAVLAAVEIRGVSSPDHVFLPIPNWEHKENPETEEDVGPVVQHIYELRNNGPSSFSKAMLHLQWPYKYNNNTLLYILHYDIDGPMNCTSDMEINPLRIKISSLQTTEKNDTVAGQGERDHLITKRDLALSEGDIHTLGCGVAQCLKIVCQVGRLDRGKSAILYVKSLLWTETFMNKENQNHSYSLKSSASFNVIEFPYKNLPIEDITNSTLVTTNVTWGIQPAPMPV
Chain of human recombinant αvβ6 protein (P18564 22-707 limits assumed): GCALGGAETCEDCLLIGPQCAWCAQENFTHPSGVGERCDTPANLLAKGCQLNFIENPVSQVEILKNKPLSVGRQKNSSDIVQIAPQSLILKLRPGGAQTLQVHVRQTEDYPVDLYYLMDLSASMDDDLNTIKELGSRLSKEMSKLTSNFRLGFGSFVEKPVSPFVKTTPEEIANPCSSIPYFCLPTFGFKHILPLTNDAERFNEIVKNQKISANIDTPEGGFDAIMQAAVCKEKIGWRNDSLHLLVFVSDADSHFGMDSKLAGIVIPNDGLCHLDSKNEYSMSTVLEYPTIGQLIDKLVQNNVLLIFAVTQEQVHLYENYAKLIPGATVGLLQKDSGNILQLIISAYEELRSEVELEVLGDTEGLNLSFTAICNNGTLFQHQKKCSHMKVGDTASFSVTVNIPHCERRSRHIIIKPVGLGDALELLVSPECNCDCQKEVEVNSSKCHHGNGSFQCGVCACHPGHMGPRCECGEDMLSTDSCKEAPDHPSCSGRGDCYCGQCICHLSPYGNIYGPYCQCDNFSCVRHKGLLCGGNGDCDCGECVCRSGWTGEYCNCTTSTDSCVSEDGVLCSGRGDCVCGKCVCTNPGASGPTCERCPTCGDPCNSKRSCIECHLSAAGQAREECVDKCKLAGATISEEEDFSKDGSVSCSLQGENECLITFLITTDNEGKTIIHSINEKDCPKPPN
For `[N-]=[N+]=NCCOCCOCCOCCOCCOc1ccc(-c2ccc([C@H](CC(=O)O)NC(=O)CNC(=O)CCCc3ccc4c(n3)NCCC4)cc2)c2ccccc12` [III-k'], the IC50 was found to be 2.29 nM.

Turning to `[N-]=[N+]=NCCOCCOCCOCCOCCOc1ccc(-c2ccc([C@H](CC(=O)O)NC(=O)CNC(=O)CCc3ccc4c(n3)NCCC4)cc2)c2ccccc12` [III-l'], the IC50 came to 1.67 nM. Same read-out and setting: to `[N-]=[N+]=NCCOCCOCCOCCOCCOc1ccc(-c2ccc([C@H](CC(=O)O)NC(=O)CNC(=O)CCCNc3cc4c(cn3)CCCC4)cc2)c2ccccc12` [III-m'] belongs 1.47 nM. Same read-out and setting: to `Cc1ccnc(NCCCC(=O)NCC(=O)N[C@@H](CC(=O)O)c2ccc(-c3ccc(OCCOCCOCCOCCOCCN=[N+]=[N-])c4ccccc34)cc2)c1` [SM6.1-αvβ6, reference compound] belongs 1.6 nM.

The experiment is the same for the next values; noted with them: read-out: αvβ6 IC50, 12 concentration points, highest 10 µM.
Take `Cc1ccnc(NCCOC(=O)NCC(=O)N[C@@H](CC(=O)O)c2ccc(-c3ccc(OCCOCCOCCOCCOCCN=[N+]=[N-])c4ccccc34)cc2)c1` [III-h']: the IC50 turned out to be 0.856 nM.

On to `Cc1ccnc(NCCNC(=O)NCC(=O)N[C@@H](CC(=O)O)c2ccc(-c3ccc(OCCOCCOCCOCCOCCN=[N+]=[N-])c4ccccc34)cc2)c1` [III-i'], for which the IC50 is 2.47 nM. Still for that read-out and setting: to `[N-]=[N+]=NCCOCCOCCOCCOCCOc1ccc(-c2ccc([C@H](CC(=O)O)NC(=O)CNC(=O)CCCNc3nccs3)cc2)c2ccccc12` [III-j'] belongs 1.98 nM.
